# In ChEMBL document CHEMBL4616720 (J Med Chem, 2020):
# Legend:
# [1] = target: T1, Peptide deformylase, mitochondrial (Homo sapiens, UniProt Q9HBH1); experiment: Inhibition of human PDF expressed in Escherichia coli BL21 pLysS using formyl-Met-Ala-His-Ala peptide as substrate measured after 1 hr by fluorescamine-based fluorescence assay
# T1 sequence (Q9HBH1 whole entry): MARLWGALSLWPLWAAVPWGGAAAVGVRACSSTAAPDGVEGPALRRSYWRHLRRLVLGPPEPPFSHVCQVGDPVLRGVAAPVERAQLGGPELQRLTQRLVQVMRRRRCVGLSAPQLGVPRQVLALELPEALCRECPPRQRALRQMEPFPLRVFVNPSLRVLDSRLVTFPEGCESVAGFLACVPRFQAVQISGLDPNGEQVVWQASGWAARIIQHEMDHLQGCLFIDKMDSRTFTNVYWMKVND
# HCT-116 = experiment: Antiproliferative activity against human HCT116 cells assessed as reduction in cell growth measured after 48 hrs by CCK8 assay; type: functional, cell-based; conditions: HCT-116, 48 h
# HL-60 = experiment: Antiproliferative activity against human HL60 cells assessed as reduction in cell growth measured after 48 hrs by CCK8 assay; type: functional, cell-based; conditions: HL-60, 48 h
# A549 = experiment: Antiproliferative activity against human A549 cells assessed as reduction in cell growth measured after 48 hrs by CCK8 assay; type: functional, cell-based; conditions: A549, 48 h
# SJSA-1 = experiment: Antiproliferative activity against human SJSA1 cells assessed as reduction in cell growth measured after 48 hrs by CCK8 assay; type: functional, cell-based; conditions: SJSA-1, 48 h
# MCF7 = experiment: Antiproliferative activity against human MCF7 cells assessed as reduction in cell growth measured after 48 hrs by CCK8 assay; type: functional, cell-based; conditions: MCF7, 48 h
# MCF-10A = experiment: Cytotoxicity against human MCF10A cells assessed as reduction in cell growth measured after 48 hrs by CCK8 assay; type: cell-based
# Histone deacetylase 1 [2] = target: T2, Histone deacetylase 1 (Homo sapiens, UniProt Q13547); experiment: Inhibition of HDAC1 (unknown origin) using Boc-Lys(Ac)-pNA as substrate preincubated for 20 mins followed by substrate addition and further incubated for 90 mins by fluorescence assay
# T2 sequence (Q13547 whole entry): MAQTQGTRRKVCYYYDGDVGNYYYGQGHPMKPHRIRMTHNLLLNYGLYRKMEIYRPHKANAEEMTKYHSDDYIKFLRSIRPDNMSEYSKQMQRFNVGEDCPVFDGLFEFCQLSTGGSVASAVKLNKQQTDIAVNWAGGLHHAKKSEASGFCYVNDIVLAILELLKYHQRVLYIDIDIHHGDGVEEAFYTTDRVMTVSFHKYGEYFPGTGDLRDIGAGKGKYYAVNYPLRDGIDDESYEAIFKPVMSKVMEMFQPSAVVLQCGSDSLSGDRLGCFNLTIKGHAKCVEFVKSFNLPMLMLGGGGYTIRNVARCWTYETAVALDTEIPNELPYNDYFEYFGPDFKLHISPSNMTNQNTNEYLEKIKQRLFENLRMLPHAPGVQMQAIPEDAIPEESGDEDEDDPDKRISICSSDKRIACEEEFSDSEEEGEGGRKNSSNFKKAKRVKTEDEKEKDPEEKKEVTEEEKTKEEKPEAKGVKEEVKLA
# [3] = target: T3, Protein deacetylase HDAC6 (Homo sapiens, UniProt Q9UBN7); experiment: Inhibition of HDAC6 (unknown origin) using Boc-Lys(Ac)-pNA as substrate preincubated for 20 mins followed by substrate addition and further incubated for 90 mins by fluorescence assay
# T3 sequence (Q9UBN7 whole entry): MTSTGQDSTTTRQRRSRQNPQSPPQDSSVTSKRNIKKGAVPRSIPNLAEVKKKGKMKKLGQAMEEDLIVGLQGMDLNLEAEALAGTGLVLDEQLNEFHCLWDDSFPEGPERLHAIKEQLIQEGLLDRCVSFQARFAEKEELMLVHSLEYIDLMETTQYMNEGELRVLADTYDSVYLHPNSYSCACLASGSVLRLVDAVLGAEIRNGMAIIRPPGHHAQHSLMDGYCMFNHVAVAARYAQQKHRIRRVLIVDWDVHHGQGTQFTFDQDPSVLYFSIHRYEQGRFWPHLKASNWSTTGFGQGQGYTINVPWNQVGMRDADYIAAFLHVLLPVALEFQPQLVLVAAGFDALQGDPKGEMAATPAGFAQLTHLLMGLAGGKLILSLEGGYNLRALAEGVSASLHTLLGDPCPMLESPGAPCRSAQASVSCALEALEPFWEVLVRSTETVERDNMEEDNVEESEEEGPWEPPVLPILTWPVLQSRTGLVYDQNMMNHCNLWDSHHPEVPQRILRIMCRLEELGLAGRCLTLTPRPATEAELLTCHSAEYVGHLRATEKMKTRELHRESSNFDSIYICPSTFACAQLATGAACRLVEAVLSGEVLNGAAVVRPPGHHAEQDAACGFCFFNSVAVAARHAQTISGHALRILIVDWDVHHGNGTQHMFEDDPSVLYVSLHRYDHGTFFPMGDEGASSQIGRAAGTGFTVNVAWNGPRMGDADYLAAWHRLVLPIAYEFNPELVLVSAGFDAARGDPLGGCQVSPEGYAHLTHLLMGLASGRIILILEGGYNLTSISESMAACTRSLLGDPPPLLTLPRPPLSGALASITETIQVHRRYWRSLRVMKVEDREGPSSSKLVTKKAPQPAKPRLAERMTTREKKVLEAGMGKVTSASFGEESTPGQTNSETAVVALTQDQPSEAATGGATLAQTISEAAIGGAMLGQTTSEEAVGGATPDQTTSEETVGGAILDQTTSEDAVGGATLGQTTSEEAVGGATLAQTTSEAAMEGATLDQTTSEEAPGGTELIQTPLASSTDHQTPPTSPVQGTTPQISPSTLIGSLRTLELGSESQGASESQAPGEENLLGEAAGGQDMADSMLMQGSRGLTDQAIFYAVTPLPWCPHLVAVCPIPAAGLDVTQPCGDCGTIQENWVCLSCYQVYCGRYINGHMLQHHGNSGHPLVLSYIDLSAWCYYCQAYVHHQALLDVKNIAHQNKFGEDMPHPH
# Histone deacetylase 1 [4] = target: T2, Histone deacetylase 1; experiment: Inhibition of HDAC1 (unknown origin) at 10 uM using Boc-Lys(Ac)-pNA as substrate preincubated for 20 mins followed by substrate addition and further incubated for 90 mins by fluorescence assay relative to control
# [5] = target: T4, Protein deacetylase HDAC6 (Homo sapiens) (UniProt Q9UBN7); experiment: Inhibition of HDAC6 (unknown origin) at 10 uM using Boc-Lys(Ac)-pNA as substrate preincubated for 20 mins followed by substrate addition and further incubated for 90 mins by fluorescence assay relative to control
# T4 sequence (whole entry): T3 sequence (Q9UBN7 whole entry)
Compound,IC50 [1] [µM],IC50 (HCT-116) [µM],other results
O=C(C[C@@H](CC1CCCC1)C(=O)N1CC2(CC2)C[C@H]1C(=O)Nc1cccnn1)NO,0.0131,> 40,
Cn1cc(NC(=O)[C@@H]2CC3(CC3)CN2C(=O)[C@@H](CC(=O)NO)CC2CCCC2)cn1,0.0302,> 40,
O=C(C[C@@H](CC1CCCC1)C(=O)N1CC2(CC2)C[C@H]1C(=O)Nc1ccc(Br)cc1)NO,0.00612,5.35,
Cc1cc(C)cc(C(=O)NOCCCCCC(=O)NO)c1,,,IC50 (Histone deacetylase 1 [2]): 0.058 µM; IC50 [3]: 0.012 µM
O=C(C[C@@H](CC1CCCC1)C(=O)N1CC2(CC2)C[C@H]1C(=O)Nc1cnccn1)NO,0.00587,> 40,
CCCC[C@H](CC(=O)NO)C(=O)N1CC2(CC2)C[C@H]1C(=O)Nc1ncc(C)s1,0.00942,> 40,
Cc1cnc(NC(=O)[C@@H]2CC3(CC3)CN2C(=O)[C@@H](CC(=O)NO)CC2CCCC2)s1,0.00278,18.7,
O=C(C[C@@H](CC1CCCC1)C(=O)N1CC2(CC2)C[C@H]1C(=O)Nc1ccccc1)NO,0.00642,14.9,
O=C(C[C@@H](CC1CCCC1)C(=O)N1CCC[C@H]1C(=O)Nc1ccc(F)cn1)NO,0.0109,> 40,
Cc1csc(NC(=O)[C@@H]2CC3(CC3)CN2C(=O)[C@@H](CC(=O)NO)CC2CCCC2)n1,0.00299,29.1,
Cc1cnc(NC(=O)[C@@H]2CCCN2C(=O)[C@@H](CC(=O)NO)CC2CCCC2)s1,0.00894,> 40,
O=C(C[C@@H](CC1CCCC1)C(=O)N1CC2(CC2)C[C@H]1C(=O)Nc1nccs1)NO,0.00874,> 40,
C=C1C[C@@H](C(=O)Nc2ccc(F)cn2)N(C(=O)[C@@H](CC(=O)NO)CC2CCCC2)C1,0.00715,> 40,
Cc1ccc(NC(=O)[C@@H]2CC3(CC3)CN2C(=O)[C@@H](CC(=O)NO)CC2CCCC2)cc1,0.00358,11.2,
CCCC[C@H](CC(=O)NO)C(=O)N1CC2(CC2)C[C@H]1C(=O)Nc1ccc(F)cn1,0.00492,> 40,

# Second part, led by results:
IC50 [1] [µM],IC50 (HCT-116) [µM],Compound,other results
0.00953,> 40,O=C(C[C@@H](CC1CCCC1)C(=O)N1CC2(CC2)C[C@H]1C(=O)Nc1ccncn1)NO,
0.00501,3.47,O=C(C[C@@H](CC1CCCC1)C(=O)N1CC2(CC2)C[C@H]1c1nc(-c2ccc(C3CC3)cc2)no1)NO,
0.00647,3.49,O=C(C[C@@H](CC1CCCC1)C(=O)N1CC2(CC2)C[C@H]1c1nc(-c2ccc(C(F)(F)F)cc2Cl)no1)NO,IC50 (HL-60): 3.45 µM; IC50 (A549): 2.53 µM; IC50 (SJSA-1): 3.15 µM; IC50 (MCF7): 5.78 µM; IC50 (MCF-10A): 28.4 µM
0.00548,2.87,O=C(C[C@@H](CC1CCCC1)C(=O)N1CC2(CC2)C[C@H]1c1nc(-c2ccc(Br)cc2)no1)NO,IC50 (HL-60): 2.17 µM; IC50 (A549): 2.61 µM; IC50 (SJSA-1): 2.56 µM; IC50 (MCF7): 3.56 µM; IC50 (MCF-10A): 21.7 µM
0.00708,3.62,O=C(C[C@@H](CC1CCCC1)C(=O)N1CC2(CC2)C[C@H]1c1nc(-c2cc(F)cc(F)c2F)no1)NO,
0.00719,4.11,O=C(C[C@@H](CC1CCCC1)C(=O)N1CC2(CC2)C[C@H]1c1nc(-c2ccc(C(F)(F)F)cc2)no1)NO,IC50 (HL-60): 3.06 µM; IC50 (A549): 3.45 µM; IC50 (SJSA-1): 2.95 µM; IC50 (MCF7): 5.79 µM; IC50 (MCF-10A): 22.4 µM
0.00377,4.46,O=C(C[C@@H](CC1CCCC1)C(=O)N1CC2(CC2)C[C@H]1c1nc(-c2ccccc2)no1)NO,IC50 (HL-60): 3.58 µM; IC50 (A549): 2.55 µM; inhibition (Histone deacetylase 1 [4]): -0.95%; IC50 (SJSA-1): 3.8 µM; inhibition [5]: 1.08%; IC50 (Histone deacetylase 1 [2]): > 10 µM; IC50 [3]: > 10 µM; IC50 (MCF7): 8.64 µM; IC50 (MCF-10A): 32.3 µM
0.00587,20.2,O=C(C[C@@H](CC1CCCC1)C(=O)N1CC2(CC2)C[C@H]1C(=O)Nc1ccc(F)cn1)NO,
0.00881,2.31,CCc1ccc(-c2noc([C@@H]3CC4(CC4)CN3C(=O)[C@@H](CC(=O)NO)CC3CCCC3)n2)cc1,IC50 (HL-60): 1.88 µM; IC50 (A549): 2.43 µM; IC50 (SJSA-1): 2.82 µM; IC50 (MCF7): 3.95 µM; IC50 (MCF-10A): 19.9 µM
0.00926,7.78,Cc1ccc(-c2noc([C@@H]3CC4(CC4)CN3C(=O)[C@@H](CC(=O)NO)CC3CCCC3)n2)cc1,IC50 (HL-60): 5.35 µM; IC50 (A549): 8.69 µM; IC50 (SJSA-1): 5.35 µM; IC50 (MCF7): 9.89 µM; IC50 (MCF-10A): 29.8 µM
0.0293,> 40,Cc1noc([C@@H]2CC3(CC3)CN2C(=O)[C@@H](CC(=O)NO)CC2CCCC2)n1,
0.00485,10,O=C(C[C@@H](CC1CCCC1)C(=O)N1CC2(CC2)C[C@H]1c1nc(-c2ccc(C(F)(F)F)cc2F)no1)NO,IC50 (HL-60): 4.77 µM; IC50 (A549): 10.3 µM; IC50 (SJSA-1): 8.7 µM; IC50 (MCF7): 10.6 µM; IC50 (MCF-10A): 29.1 µM
0.0161,> 40,O=C(C[C@@H](CC1CCCC1)C(=O)N1CC2(CC2)C[C@H]1c1nc(-c2cnccn2)no1)NO,
0.00501,> 40,O=C(C[C@@H](CC1CCCC1)C(=O)N1CC2(CC2)C[C@H]1c1nc(-c2ccc(F)cn2)no1)NO,
0.00424,2.07,CCCCc1ccc(-c2noc([C@@H]3CC4(CC4)CN3C(=O)[C@@H](CC(=O)NO)CC3CCCC3)n2)cc1,
0.00701,24.5,O=C(C[C@@H](CC1CCCC1)C(=O)N1CC2(CC2)C[C@H]1C(=O)Nc1ccc(F)cc1C(F)(F)F)NO,
